Measured values: ChEMBL document CHEMBL5532762, “Potential of covalently linked tamoxifen hybrids for cancer treatment: recent update” (RSC Med Chem, 2024)

Legend:
[1] = test system: MCF7; test: Antiproliferative activity against human MCF7 cells assessed as reduction in cell viability measured after 72 hrs by MTT assay; assay type: functional, cell-based; details: MCF7, 72 h
[2] = test system: MDA-MB-231; test: Growth inhibition of human MDA-MB-231 cells measured after 48 hrs by SRB assay; assay type: functional
[3] = test system: SiHa; test: Growth inhibition of human SiHa cells measured after 48 hrs by SRB assay; assay type: functional
[4] = Aqueous solubility of the compound; assay type: physicochemical; details: water (aqueous)
[5] = test system: MCF7; test: Antiproliferative activity against human MCF7 cells assessed as reduction in cell growth incubated for 24 hrs by MTT assay; details: MCF7, 24 h
[6] = test system: MDA-MB-231; test: Antiproliferative activity against human MDA-MB-231 cells assessed as reduction in cell growth incubated for 24 hrs by MTT assay; details: MDA-MB-231, 24 h
[7] = test system: MCF7; test: Antiproliferative activity against human MCF7 cells assessed as reduction in cell growth measured after 72 hrs by alamar blue analysis; details: MCF7, 72 h
[8] = target: Estrogen receptor beta (Homo sapiens, UniProt Q92731); test: Inhibition of ERbeta (unknown origin) by renilla luciferase assay
Chain of Estrogen receptor beta (Q92731 whole entry): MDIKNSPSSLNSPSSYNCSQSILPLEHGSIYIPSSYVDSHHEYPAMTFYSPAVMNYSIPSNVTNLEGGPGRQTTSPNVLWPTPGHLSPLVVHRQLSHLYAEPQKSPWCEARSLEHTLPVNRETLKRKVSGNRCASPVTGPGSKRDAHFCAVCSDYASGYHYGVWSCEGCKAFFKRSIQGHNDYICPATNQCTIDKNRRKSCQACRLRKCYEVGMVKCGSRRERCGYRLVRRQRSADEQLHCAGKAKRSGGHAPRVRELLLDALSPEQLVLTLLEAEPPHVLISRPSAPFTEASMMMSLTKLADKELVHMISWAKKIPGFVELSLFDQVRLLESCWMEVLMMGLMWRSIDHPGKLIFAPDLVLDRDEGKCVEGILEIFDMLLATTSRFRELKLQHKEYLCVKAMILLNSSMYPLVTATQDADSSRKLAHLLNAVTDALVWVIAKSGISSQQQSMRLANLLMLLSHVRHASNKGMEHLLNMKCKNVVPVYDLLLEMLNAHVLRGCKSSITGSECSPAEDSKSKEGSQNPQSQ

[9] = test system: MCF7; test: Antiproliferative activity against human MCF7 cells assessed as cell growth inhibition incubated for 72 hrs by MTT assay; details: MCF7, 72 h

CC/C(=C(\c1ccccc1)c1ccc(OCCN(C)CCCCCC(=O)NCCc2c[nH]c3ccc(OC)cc23)cc1)c1ccccc1 gave an IC50 [1] of 80000 nM.

In the case of CC/C(=C(\c1ccccc1)c1ccc(OCCN(C)CCCCC(=O)NCCc2c[nH]c3ccc(OC)cc23)cc1)c1ccccc1, the IC50 [1] is reported as 4000 nM.

In the case of c1ccc(/C(Cn2cncn2)=C(/c2ccccc2)c2ccc(OCCN3CCN(c4ccc5c(c4)OCO5)CC3)cc2)cc1, the GI50 [2] is reported as 230 nM.

Compound c1ccc(/C(Cn2cncn2)=C(/c2ccccc2)c2ccc(OCCN3CCN(c4ncccn4)CC3)cc2)cc1 has a GI50 [3] of 120 nM.

With CC/C(=C(/c1ccc(OCCN(C)C)cc1)c1ccc(OC(=O)N(C)CCN(C)C(=O)OCc2cc(OC)c(OCC(=O)NCCN)cc2[N+](=O)[O-])cc1)c1ccccc1 the solubility [4] was no less than 20 µg/mL.

Work on CCC(=C(c1ccc(O)cc1)c1ccc(OCCN(C)C(=O)/C(=C/c2ccc(OC)c(O)c2)c2cc(OC)c(OC)c(OC)c2)cc1)c1ccc(O)cc1 yielded an IC50 [5] of 5 nM and an IC50 [6] of 2480 nM.

In the case of COc1cc(COc2ccc(/C(=C(\C)c3ccccc3)c3ccc(OCCN(C)C)cc3)cc2)c([N+](=O)[O-])cc1OCC(=O)NCCN, the solubility [4] is reported as no less than 20 µg/mL.

Compound CC/C(=C(\c1ccc(O)cc1)c1ccc(OCCN(C)C(=O)CCC(=O)Oc2cc(/C=C\c3cc(OC)c(OC)c(OC)c3)ccc2OC)cc1)c1ccccc1 has an IC50 [7] of 5.7 nM.

CCC(=C(c1ccc(O)cc1)c1ccc(OCCNCCCCCCNC(=O)CCCCCNC(=O)CSc2c(Cl)c(Cl)c(C(=O)O)c(C3=c4cc5c(c(S(=O)(=O)O)c4Oc4c3cc3c(c4S(=O)(=O)O)NC(C)(C)CC3C)=NC(C)(C)CC5C)c2Cl)cc1)c1ccccc1 (centres undefined) showed an IC50 [8] of 240000 nM.

COc1ccc(/C=C\c2cc(OC)c(OC)c(OC)c2)cc1O [COMBRETASTATIN A4] showed an IC50 [5] of 8 nM.

Work on CC/C(=C(\c1ccc(O)cc1)c1ccc(OCCNC)cc1)c1ccccc1 [ENDOXIFEN] yielded an IC50 [5] of 29 nM.

CC/C(=C(\c1ccccc1)c1ccc(OCCN(C)C)cc1)c1ccccc1 [TAMOXIFEN] showed a GI50 [2] of 240 nM and an IC50 [9] of 12600 nM.
